# Test results as given in patent publication US8163939B2, “Ascorbic acid derivative or salt thereof, production method thereof, and cosmetic” (Seikwa Kasei Company, Limited, priority 2007, dated 2012).
# Legend:
# [1] = Moisturizing test: moisturizing effect by water retention force; assay type: physicochemical
# Method: A sample shown later was dried, and the dried sample was spread in an amount of about 0.4 g (this weight is represented by W0) on the bottom of a weighing bottle (diameter: 3.6 cm, height excluding lid: 1.8 cm) so as to give uniform thickness. The sample contained in the weighing bottle was allowed to stand still in a constant humidity and constant temperature vessel (ENVIROS KCL-1000, TOKYO RIKAKIKAI CO, LTD) under environments of 25° C. and 65% RH. The weight was measured periodically, waiting until sufficient moisture absorption to attain equilibrium of weight increase (about 48 hours). Thereafter, the sample was transferred to under environments of 25° C. and 20% RH (in sealed vessel containing a saturated CH3COOK aqueous solution filled in the bottom part). From the weight after 24 hours (this weight is represented by W1), the amount of retained water per 1 g of the dried sample was calculated according to the following formula. (W1−W0)/W0
# From the water amount thus calculated, the moisturizing effect was judged based on the following judging criterion, and the results are shown in Table 43.
# Three compounds: 2,3-di-O-glyceryl ascorbic acid, 2,3-di-O-phenylglyceryl ascorbic acid, and glycerin, and
# Six compounds: ascorbic acid, ascorbic acid glucoside, 2-O-glyceryl ascorbic acid, 3-O-glyceryl ascorbic acid, 3-O-butylglyceryl ascorbic acid and 3-O-octylglyceryl ascorbic acid, which were adjusted to pH7 with a dilute sodium hydroxide aqueous solution and concentrated.
# ◯: 25 mg or more and less than 40 mg
# Δ: 10 mg or more and less than 25 mg
# [2] = Stability Test 1: 2% aqueous solution, pH7, room temperature, 4 weeks (residual rate, odor, coloration); assay type: physicochemical
# Method: (§1) Aqueous solutions (2%) of various test samples were adjusted to pH7 with a dilute sodium hydroxide aqueous solution, and charged into 50 mL screw tubes, and the tubes were sealed and stored at room temperature for 4 weeks. Thereafter, HPLC measurement were performed (using liquid chromatography manufactured by Tosoh Corp.) and the residual rate was obtained based on the peak area. The residual rate, odor(odor change) and degree of coloration were evaluated based on the following methods and standards, and the results are shown in Table 41.
# ◯: 80% or more and less than 90%
# Δ: 60% or more and less than 80%
# X: 20% or more and less than 60%
# It was evaluated according to the following criterion by 10 panelists.
# Based on the evaluation results, classification was conducted as shown below.
# ◯: total point of 10 panelists is 25 or more
# Δ: total point of 10 panelists is 16 to 24
# X: total point of 10 panelists is 15 or less
# 3: almost no change as compared with that immediately after preparation
# 2: coloration is observed as compared with that immediately after preparation
# 1: intense coloration is observed as compared with that immediately after preparation
# B16 melanoma 4A5 cell = test: Whitening test: theophylline-induced melanine production in B16 melanoma 4A5 cells; assay type: cell-based, mouse; conditions: sample at a concentration of 100 μM or less; theophylline-induced melanine production; 3 days culture; N=4;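 also: grades: ± under 20% + 20-40% ++ 40-70% +++ 70-100% suppression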
# Method: As a test for a whitening effect, evaluation of the action of B16 melanoma 4A5 cell on theophylline-induced melanine production was carried out on an ascorbic acid derivative of the present invention, according to the following procedure. The same evaluation was carried out also on ascorbic acid, known compounds: ascorbic acid salts, and ascorbic acid derivatives, as comparison. The results are shown in Tables 38 to 40. • (1) B16 mouse melanoma 4A5 strain was sowed onto a 48-well plate at a cell density of 2.0×10^4 cells/well. • (2) Culturing was performed for 24 hours with Dulbecco's Modified Eagle's medium (manufactured by SIGMA. Hereinafter, abbreviated as D-MEM) containing 10% fetal bovine serum (manufactured by Roshe Diagnostics). Then, it was changed to 0.2 mM theophylline and a 10% fetal bovine serum-containing D-MEM which contains a sample of given concentration. • (3) After culturing for 3 days in the co-existence of a sample, the medium was removed using an aspirator. Then, after distilled water was added, cells were broken by an ultrasonic wave. • (4) Thereafter, the amount of protein was determined using BCA protein assay kit (manufactured by PIERCE), and the produced amount of melanine was measured by an alkali solubilizing method. To the cell-destructed solution was added sodium hydroxide so as to give a final concentration of 2N and the mixture was dissolved by heating (60° C., 15 minutes), then, the absorbance at 450 nm was measured using a micro plate reader. The melanine amount was calculated from a calibration curve made using synthetic melanine (SIGMA) as a standard. The melanine amount per unit protein was calculated by dividing the melanine amount by the protein amount. • (5) The melanine production suppressing rate was calculated according to the following formula. Melanine production suppressing rate (%)=[1−(A−B)/(C−B)]×100 [wherein, A represents the melanine amount per unit protein (g/g) in adding a sample, B represents the melanine amount per unit protein (g/g) in the normal group, and C represents the melanine amount per unit protein (g/g) in the control group.]
# In the following Tables, the melanine production suppressing rate in measuring a sample at a concentration of 100 μM or less is expressed as described below. The measurement was carried out at N=4.
# [3] = test system: Normal human dermal fibroblasts; test: Collagen production of human fibroblast 2 (100 μM or 500 μM; 2, 4 and 7 days); assay type: cell-based; conditions: for Collagen production amount in comparison with the control group (% value when the control group is 100%): 100 μM or 500 μM (not stated which), average ± standard error, N=4
# Method: (§2) Normal human dermal fibroblasts were regulated with a 10% (v/v) fetal bovine serum (manufactured by Roshe Diagnostics)-containing D-MEM so as to give a cell density of 2.5×10^4 cells/well, then, pre-incubation for 24 hours was performed on a 96-well plate. After the medium was removed, a sample regulated with a 5% (v/v) fetal bovine serum-containing D-MEM to a concentration of 100 μM was added to each well, then, cultured for 48 hours under 37° C. and 5% CO2. After completion of culturing, the amount of free collagen was measured using Sircol collagen assay kit (manufactured by Biocolor). The measurement was carried out at N=4.
# Free collagen was measured under the same conditions as in Test Example 5 excepting that the concentration of each sample was 100 μM or 500 μM and culturing was carried out for 2 days, 4 days and 7 days. The measurement was carried out at N=4, and the average and standard error, in four test examples, of values of the collagen production amount in comparison with the control group (% value when the control group is 100%) are shown in Tables 46 and 47.
# [4] = test system: Normal human dermal fibroblasts; test: Collagen production of human fibroblast (Sircol collagen assay, 100 μM, 48 hours); assay type: cell-based; conditions: Homo sapiens, Fibroblast, cultured 48 hours, N=4, read-out: Collagen production promoting effect (collagen production amount, % of control group)
# Method: as §2
# The collagen production amount in measuring a sample at a concentration of 100 μM was compared with the control group, and the results thereof (% value when the control group is 100%) are shown in Tables 44 and 45 based on the following standard.
# [5] = Stability Test 2: 2% aqueous solution, pH7, 50° C., 4 weeks (residual rate, odor, coloration); assay type: physicochemical
# Method: as §1
# The same test as in Test Example 2 was carried out excepting that the sample was stored at 50° C. for 4 weeks instead of storing at room temperature for 4 weeks.
# [6] = storage period 2 weeks, 10 panelists
# [7] = storage period 4 weeks, 10 panelists
# [8] = Table 46, culturing period 2 days
# [9] = Table 46, culturing period 4 days
# [10] = Table 46, culturing period 7 days
compound,measurement,setting,value
"O=C1O[C@H]([C@@H](O)CO)C(OCC(O)CO)=C1O (stereo partly drawn) [Example 1, 3-O-glyceryl ascorbic acid]",moisturizing effect (in words),"[1]; conclusion from Table 43, compared with ascorbic acid",more excellent moisturizing effect than ascorbic acid
"OCC(O)CO [glycerin, reference compound]",Judgement of moisturizing effect (water amount),[1],⊚ (⊚: 40 mg or more)
3-O-butylglycerylascorbic acid,Judgement of moisturizing effect (water amount),[1],◯ (◯: 25 mg or more and less than 40 mg)
"O=C1OC(C(O)CO)C(OCC(O)CO)=C1O (stereo not drawn) [Example 1, 3-O-glyceryl ascorbic acid]",Residual rate,[2]; storage period 0,⊚ (⊚: 90% or more)
same,Coloration,"[2]; storage period 0, 10 panelists",◯ (◯: total point of 10 panelists is 25 or more)
same,Odor,"[2]; storage period 0, 10 panelists",◯ (◯: total point of 10 panelists is 25 or more)
same,Residual rate,[2]; storage period 2 weeks,◯ (◯: 80% or more and less than 90%)
same,Coloration,[2]; [6],◯ (◯: total point of 10 panelists is 25 or more)
same,Odor,[2]; [6],◯ (◯: total point of 10 panelists is 25 or more)
same,Residual rate,[2]; storage period 4 weeks,◯ (◯: 80% or more and less than 90%)
same,Coloration,[2]; [7],◯ (◯: total point of 10 panelists is 25 or more)
same,Odor,[2]; [7],◯ (◯: total point of 10 panelists is 25 or more)
same,Whitening effect (melanine production suppressing rate),B16 melanoma 4A5 cell,+ (20 to 40%:+)
same,Collagen production amount in comparison with the control group (% value when the control group is 100%),[3]; [8],182 ± 7%
same,Collagen production amount in comparison with the control group (% value when the control group is 100%),[3]; [9],209 ± 8%
same,Collagen production amount in comparison with the control group (% value when the control group is 100%),[3]; [10],219 ± 29%
same,activity at 100 µM,[4],100 to 200%
O=C1O[C@H]([C@@H](O)CO)C(O)=C1OCC(O)CO (stereo partly drawn) [2-O-glycerylascorbic acid],Judgement of moisturizing effect (water amount),[1],⊚ (⊚: 40 mg or more)
"O=C1O[C@H]([C@@H](O)CO)C(OCC(O)CO)=C1OCC(O)CO (stereo partly drawn) [2,3-di-O-glycerylascorbic acid]",Judgement of moisturizing effect (water amount),[1],⊚ (⊚: 40 mg or more)
O=C1O[C@H]([C@@H](O)CO)C(OCC(O)CO)=C1O (stereo partly drawn) [3-O-glycerylascorbic acid],Judgement of moisturizing effect (water amount),[1],◯ (◯: 25 mg or more and less than 40 mg)
"2,3-di-O-phenylglycerylascorbic acid",Judgement of moisturizing effect (water amount),[1],Δ (Δ: 10 mg or more and less than 25 mg)
3-O-octylglycerylascorbic acid,Judgement of moisturizing effect (water amount),[1],Δ (Δ: 10 mg or more and less than 25 mg)
"CCCCCCCCOC1=C(OCC(O)CO)[C@@H]([C@@H](O)CO)OC1=O (stereo partly drawn) [Example 14, 3-O-glyceryl-2-O-octyl ascorbic acid]",Residual rate,[5]; storage period 0,⊚ (⊚: 90% or more)
same,Coloration,"[5]; storage period 0, 10 panelists",◯ (◯: total point of 10 panelists is 25 or more)
same,Odor,"[5]; storage period 0, 10 panelists",◯ (◯: total point of 10 panelists is 25 or more)
same,Residual rate,[5]; storage period 2 weeks,⊚ (⊚: 90% or more)
same,Coloration,[5]; [6],◯ (◯: total point of 10 panelists is 25 or more)
same,Odor,[5]; [6],◯ (◯: total point of 10 panelists is 25 or more)
same,Residual rate,[5]; storage period 4 weeks,⊚ (⊚: 90% or more)
same,Coloration,[5]; [7],◯ (◯: total point of 10 panelists is 25 or more)
same,Odor,[5]; [7],◯ (◯: total point of 10 panelists is 25 or more)
same,Residual rate,[2]; storage period 0,⊚ (⊚: 90% or more)
same,Coloration,"[2]; storage period 0, 10 panelists",◯ (◯: total point of 10 panelists is 25 or more)
same,Odor,"[2]; storage period 0, 10 panelists",◯ (◯: total point of 10 panelists is 25 or more)
same,Residual rate,[2]; storage period 2 weeks,⊚ (⊚: 90% or more)
same,Coloration,[2]; [6],◯ (◯: total point of 10 panelists is 25 or more)
same,Odor,[2]; [6],◯ (◯: total point of 10 panelists is 25 or more)
same,Residual rate,[2]; storage period 4 weeks,⊚ (⊚: 90% or more)
same,Coloration,[2]; [7],◯ (◯: total point of 10 panelists is 25 or more)
same,Odor,[2]; [7],◯ (◯: total point of 10 panelists is 25 or more)
same,Whitening effect (melanine production suppressing rate),B16 melanoma 4A5 cell,+++ (70 to 100%:+++)
same,Collagen production amount in comparison with the control group (% value when the control group is 100%),"[3]; Table 47, culturing period 2 days",132 ± 22%
same,Collagen production amount in comparison with the control group (% value when the control group is 100%),"[3]; Table 47, culturing period 4 days",144 ± 9%
same,Collagen production amount in comparison with the control group (% value when the control group is 100%),"[3]; Table 47, culturing period 7 days",238 ± 17%
same,activity at 100 µM,[4],100 to 200%
"CCOC1=C(O)C(=O)O[C@@H]1[C@@H](O)CO [3-O-ethylascorbic acid, reference compound]",Residual rate,[5]; storage period 0,◯ (◯: 80% or more and less than 90%)
same,Coloration,"[5]; storage period 0, 10 panelists",◯ (◯: total point of 10 panelists is 25 or more)
same,Odor,"[5]; storage period 0, 10 panelists",◯ (◯: total point of 10 panelists is 25 or more)
same,Residual rate,[5]; storage period 2 weeks,X (X: 20% or more and less than 60%)
same,Coloration,[5]; [6],Δ (Δ: total point of 10 panelists is 16 to 24)
same,Odor,[5]; [6],Δ (Δ: total point of 10 panelists is 16 to 24)
same,Residual rate,[5]; storage period 4 weeks,X (X: 20% or more and less than 60%)
same,Coloration,[5]; [7],Δ (Δ: total point of 10 panelists is 16 to 24)
same,Odor,[5]; [7],Δ (Δ: total point of 10 panelists is 16 to 24)
same,Residual rate,[2]; storage period 0,⊚ (⊚: 90% or more)
same,Coloration,"[2]; storage period 0, 10 panelists",◯ (◯: total point of 10 panelists is 25 or more)
same,Odor,"[2]; storage period 0, 10 panelists",◯ (◯: total point of 10 panelists is 25 or more)
same,Residual rate,[2]; storage period 2 weeks,◯ (◯: 80% or more and less than 90%)
same,Coloration,[2]; [6],◯ (◯: total point of 10 panelists is 25 or more)
same,Odor,[2]; [6],◯ (◯: total point of 10 panelists is 25 or more)
same,Residual rate,[2]; storage period 4 weeks,◯ (◯: 80% or more and less than 90%)
same,Coloration,[2]; [7],Δ (Δ: total point of 10 panelists is 16 to 24)
same,Odor,[2]; [7],◯ (◯: total point of 10 panelists is 25 or more)
same,Whitening effect (melanine production suppressing rate),B16 melanoma 4A5 cell,+ (20 to 40%:+)
same,collagen production promoting effect over time (in words),"[3]; 100 μM or 500 μM, culturing 2, 4 and 7 days",lowers over time
same,Collagen production amount in comparison with the control group (% value when the control group is 100%),[3]; [8],140 ± 4%
same,Collagen production amount in comparison with the control group (% value when the control group is 100%),[3]; [9],138 ± 2%
same,Collagen production amount in comparison with the control group (% value when the control group is 100%),[3]; [10],106 ± 14%
same,activity at 100 µM,[4],100 to 200%
